≈ marks a conversion by molar mass, not a printed value.
Assays:
[1] = low solubility and low permeability; cited from earlier work
[2] = cited from earlier work; for Humidity stability / form conversion: as disclosed in WO2020010216A1 (FIG. 1, Table 17)
[3] = Storage stability of Form CSII drug substance (XRPD, HPLC); type: physicochemical
Procedure: An appropriate amount of Form CSII of the present disclosure were stored under different sealed conditions of 25° C./60% RH and 40° C./75% RH with desiccant and antioxidant. Chemical purity and crystalline form were checked by HPLC and XRPD, respectively. […] Form CSII has good stability under both long-term and accelerated conditions.

[4] = Crystal form stability in formulation process; type: physicochemical; details: formulation of Table 15, process of Table 16
Excerpt: Form CSII of the present disclosure was made into capsules using the formulation in Table 15 and the preparation process in Table 16. The XRPD patterns were collected before and after the formulation process.

[5] = Particle size distribution (laser particle size analyzer, wet mode); type: physicochemical
Procedure: The particle size distribution data in the present disclosure were acquired by an Mastersizer 3000 laser particle size analyzer of Malvern. The test was carried out in wet mode, using a Hydro MV dispersion device, and the dispersant was Isopar G. The parameters are as follows:
An appropriate amount of Form CSII of the present disclosure and prior art Form 1B was tested particle size distribution. The average particle diameter calculated by volume, the diameter at which 10% mass is comprised of smaller particles (D10), the diameter at which 50% mass is comprised of smaller particles (D50) and the diameter at which 90% mass is comprised of smaller particles (D90) were obtained in particle size distribution test.

Morphology by microscopy = type: physicochemical; details: magnification of 200 times
Excerpt: An appropriate amount of Form CSII of the present disclosure was placed on a glass slide and dispersed with vacuum pump oil. It was covered with a cover glass slide and shoot at a magnification of 200 times.

[6] = Flowability (compressibility index, USP <1174>); type: physicochemical; details: for Compressibility index: c=(pf−p0)/pf; for Flowability: criteria of USP <1174> Powder Flow
Procedure: Compressibility index is usually utilized to evaluate the flowability of powder or granules during the drug product process. Compressibility index test method is as follows: a certain amount of powder was added into a measuring cylinder and bulk volume was recorded. Then the powder was tapped to make it in the tightest state and the tapped volume was recorded. The bulk density (p0), tapped density (pf) were calculated and compressibility index was calculated according to c=(pf−p0)/pf. According to the criteria of flowability in USP General Charpters: <1174> Powder Flow, the flowability results are shown in Table 10.

[7] = Kinetic solubility in FeSSIF; type: physicochemical; details: 37° C., 30 min, 10 mg in 1 mL
Procedure: When solubility test is used to predict the in vivo performance of a drug, it is critical to simulate in vivo conditions as closely as possible. For oral medication, Fed-State Simulated Intestinal Fluid (FeSSIF) can be used to simulate the condition in vivo and predict the effects of feeding, thus solubility in such mediums is closer to that in vivo.
10 mg of Form CSII and 10 mg of prior art Form 1B were suspended into 1 mL of FeSSIF to get suspensions. After equilibrated at 37° C. for 30 min, the suspensions were filtrated to get saturated solutions. The concentrations (mg/mL) of Compound I of the saturated solutions were measured by HPLC.

[8] = Stability upon mechanical force (tableting pressure, grinding); type: physicochemical
[9] = Compressibility (tablet hardness / tensile strength); type: physicochemical; details: 60 mg, φ6 mm round tooling, 5 KN; for Hardness: 24 h recovery
Procedure: An ENERPAC manual tablet press was used for compression. 60 mg of Form CSII and prior art Form 1B were weighed and added into the dies of a φ6 mm round tooling, compressed at 5 KN manually, then stored at room temperature for 24 h until elastic recovery is complete, hardness (H) was tested with an intelligent tablet hardness tester. Diameter (D) and thickness (L) were tested with a caliper. Tensile strength of the powder was calculated with the following formula: T=2H/TTDL. Under a certain force, the greater the tensile strength, the better the compressibility.

[10] = Adhesiveness (material sticking to the punch); type: physicochemical; details: 30 mg, Φ8 mm round tooling, 10 KN, held 30 s
Procedure: 30 mg of Form CSII and 30 mg of prior art Form 1B were weighed and then added into the dies of Φ8 mm round tooling, compressed at 10 KN by ENERPAC manual tablet press and held for 30 s. The punch was weighed and amount of material sticking to the punch was calculated. The compression was repeated twice and the average amount of material sticking to the punch during the compression were calculated.

[11] = 25° C./60% RH, sealed with desiccant and antioxidant, 6 months
[12] = 40° C./75% RH, sealed with desiccant and antioxidant, 6 months

In the case of `CCNCCc1ccc(CN(CC)c2cc(OC)ccc2[C@@H]2CCc3cc(O)ccc3C2)cc1` [Elacestrant, (R)-6-{2-{ethyl [4-(2-ethylaminoethyl)benzyl]amino}-4-methoxyphenyl}-5,6,7,8-tetrahydronaphthalen-2-ol], the BCS class [1] is given as “BCS class IV”.
In the case of `CCNCCc1ccc(CN(CC)c2cc(OC)ccc2[C@@H]2CCc3cc(O)ccc3C2)cc1` [Form 1], the “Humidity stability / form conversion” value [2] is listed as “transitions to Form 3 under high humidity conditions”.
In the case of `CCNCCc1ccc(CN(CC)c2cc(OC)ccc2[C@@H]2CCc3cc(O)ccc3C2)cc1` [Form 2], the “Humidity stability / form conversion” value [2] is given as “transitions to Form 3 when humidity is below 40% RH”.
For `CCNCCc1ccc(CN(CC)c2cc(OC)ccc2[C@@H]2CCc3cc(O)ccc3C2)cc1` [Form 3], the “Humidity stability / form conversion” value [2] is listed as “transitions to Form 2 when humidity is above 40% RH”.
With `CCNCCc1ccc(CN(CC)c2cc(OC)ccc2[C@@H]2CCc3cc(O)ccc3C2)cc1` [Form CSII, (R)-6-{2-{ethyl [4-(2-ethylaminoethyl)benzyl]amino}-4-methoxyphenyl}-5,6,7,8-tetrahydronaphthalen-2-ol] the “Time kept stable (crystalline state unchanged)” value ([3]; 25° C./60% RH) was “at least 6 months”, the “Form (XRPD)” value [3, 11] was “Form CSII” and the Purity [3, 11] was 99.60%. The “Time kept stable (crystalline state unchanged)” value ([3]; 40° C./75% RH) was “at least 6 months”, the “Form (XRPD)” value [3, 12] was “Form CSII” and the Purity [3, 12] was 99.58%. The “Form (XRPD)” value ([3]; Initial) was “Form CSII”, the Purity ([3]; Initial) was 99.59% and the “Crystalline form before and after formulation process” value [4] was “remains stable”. It also gave a D10 [5] of 2.11 μm, a D50 [5] of 14.9 μm and a D90 [5] of 28.3 μm. The “MV (average particle diameter calculated by volume)” value [5] was 15.8 μm, the “Agglomeration (morphology)” value (Morphology by microscopy) was “no agglomeration” and the Maximum particle size (Morphology by microscopy) was 30-40 μm. The Bulk density [6] was 0.237 g/mL, the Tapped density [6] was 0.266 g/mL and the Compressibility index [6] was 11. For the same compound, the Flowability [6] was “Good”, the Solubility [7] was 2590 µg/mL (≈ 5.65 mM) and the “Solid form after tableting” value ([8]; Pressure 5 kN) was “Form CSII”. The “Solid form after tableting” value ([8]; Pressure 10 kN) was “Form CSII”, the “Solid form after tableting” value ([8]; Pressure 15 kN) was “Form CSII” and the “Crystalline form after grinding” value ([8]; grinding (ball milling, FIG. 5)) was “doesn't change”. For the same compound, the Tensile strength [9] was 0.97 MPa, the Hardness [9] was 18.4 kgf and the “Average amount of material sticking to the punch” value [10] was 0.21 mg.
In the case of `CCNCCc1ccc(CN(CC)c2cc(OC)ccc2[C@@H]2CCc3cc(O)ccc3C2)cc1` [Prior art Form 1B, reference compound], the Particle morphology ([2]; Table 17 of WO2020010216A1) is listed as “very small flaky particle mainly composed of aggregates”, the “Humidity stability / form conversion” value [2] is listed as “can maintain stability at humidity above 90% RH” and the D10 [5] is listed as 1.64 μm. The D50 [5] was 286 μm, the D90 [5] was 839 μm and the “MV (average particle diameter calculated by volume)” value [5] was 350 μm. The Bulk density [6] was 0.198 g/mL, the Tapped density [6] was 0.248 g/mL and the Compressibility index [6] was 20. The Flowability [6] was “Fair”, the Solubility [7] was 1170 µg/mL (≈ 2.55 mM) and the Tensile strength [9] was 0.44 MPa. For the same compound, the Hardness [9] was 9.3 kgf and the “Average amount of material sticking to the punch” value [10] was 0.59 mg.

From US20250282711A1, “CRYSTALLINE FORM OF ELACESTRANT AND PREPARATION METHOD AND USE THEREOF” (CRYSTAL PHARMACEUTICAL (SUZHOU) CO., LTD., priority 2022, published 2025)
